Experimental data as given in article PMC7932537, “Quantitative profiling of protease specificity” (PLoS Computational Biology, 2021).

Experiments:
MMP-9 = test: Substrate phage display with NGS: relative probability (RP) of P3-P1' tetramer clusters; type: biochemical, human; conditions: for normalized RP - MMP9: normalized RP of matching tetramer; for corresponding MMP9 relative probability (RP): MMP2 tetramers from unique substrates, RP of same tetramer for MMP9
MMP-2 = test: as above; type: biochemical, human; conditions: for relative probability (RP) of matching tetramer: P3-P1' tetramer matching the MS detected MMP2 cleavage sequence, RP_above_4.5; for avg_RP: MMP2 - no binning, average relative probability of the tetramer, redundant tetramers averaged out; for normalized RP - MMP2: normalized RP of matching tetramer; for MMP2 relative probability (RP): MMP2 tetramers from unique substrates, unrounded values
[1] = RP of the P3-P1' tetramer, MMP9 substrate phage display/NGS, tetramers of physiologic MEROPS substrates common to MMP2 and MMP9
[2] = RP of the P3-P1' tetramer, MMP2 substrate phage display/NGS, tetramers of physiologic MEROPS substrates common to MMP2 and MMP9
[3] = MMP9, RP of the P3-P1' tetramer contained in the hexamer substrate (substrate phage display, NGS)
[4] = RP of the P3-P1' tetramer cluster contained in the hexamer, 200 nM MMP-2, 2 h, 37°C, two rounds of selection
[5] = MMP9, RP of the P3-P1' tetramer matching the MS detected cleavage, RP above 4.7, substrate phage display with NGS
[6] = RP of matching tetramer, common MMP2-9 selectome, RP above KL threshold
[7] = RP of matching tetramer, common MMP2-9 selectome
[8] = MMP9, RP of matching P3-P1' tetramer, common set of MMP2-9 selectome
[9] = MMP2, RP of matching P3-P1' tetramer, common set of MMP2-9 selectome, RP above KL threshold
[10] = RP of matching tetramer, unique part of MMP2 selectome
[11] = RP of matching tetramer, unique part of MMP2 selectome, RP above KL threshold
[12] = RP according to MMP9, P3-P1' tetramer of unique physiologic MMP9 substrates from MEROPS
[13] = RP according to MMP2, P3-P1' tetramer of unique physiologic MMP2 substrates from MEROPS

In the case of PTNL, the “relative probability (RP) (acc.to MMP9)” value (MMP-9; [1]) was 36.13 and the “relative probability (RP) (acc.to MMP2)” value (MMP-2; [2]) was 31.03.
In the case of PTPKAL, the “relative probability (RP)” value (MMP-9; [3]) was 48.3581 and the “relative probability (RP)” value (MMP-2; [4]) was 34.4858.
In the case of PVAH, the “relative probability (RP)” value (MMP-9; [5]) was 24.99, the “relative probability (RP) (acc.to MMP9)” value (MMP-9; [6]) was 24.99 and the “relative probability (RP) (acc.to MMP2)” value (MMP-2; [7]) was 24.82.
PVAIPM was tested, and the “relative probability (RP)” value (MMP-9; [3]) was 44.9732 and the “relative probability (RP)” value (MMP-2; [4]) was 32.4892.
PVAV was tested, and the “relative probability (RP) (acc.to MMP9)” value (MMP-9; [8]) was 32.82, the “relative probability (RP)” value (MMP-9; [5]) was 32.82 and the “relative probability (RP) (acc.to MMP9)” value (MMP-9; [6]) was 32.82. For the same substance, the “relative probability (RP) (acc.to MMP2)” value (MMP-2; [9]) was 27.53, the “relative probability (RP) of matching tetramer” value (MMP-2) was 27.53 and the “relative probability (RP) (acc.to MMP2)” value (MMP-2; [7]) was 27.53.
For PVEL, the “relative probability (RP) (acc.to MMP9)” value (MMP-9; [1]) was 35.1 and the “relative probability (RP) (acc.to MMP2)” value (MMP-2; [2]) was 25.47.
In the case of PVGMKG, the “relative probability (RP)” value (MMP-9; [3]) was 44.5811 and the “relative probability (RP)” value (MMP-2; [4]) was 32.557.
PVLL was tested, and the “relative probability (RP) (acc.to MMP9)” value (MMP-9; [8]) was 19.22, the “relative probability (RP)” value (MMP-9; [5]) was 19.22 and the “relative probability (RP) (acc.to MMP9)” value (MMP-9; [6]) was 19.22. The “relative probability (RP) (acc.to MMP2)” value (MMP-2; [9]) was 15.16, the “relative probability (RP) of matching tetramer” value (MMP-2) was 15.16 and the “relative probability (RP) (acc.to MMP2)” value (MMP-2; [7]) was 15.16.
In the case of PVNMTD, the “relative probability (RP)” value (MMP-9; [3]) was 44.4072 and the “relative probability (RP)” value (MMP-2; [4]) was 30.0312.
With PVNV the “relative probability (RP)” value (MMP-9; [5]) was 24.66, the “relative probability (RP) (acc.to MMP9)” value (MMP-9; [6]) was 24.66 and the “relative probability (RP) (acc.to MMP2)” value (MMP-2; [7]) was 19.63.
In the case of PVPV, the “relative probability (RP) (acc.to MMP9)” value (MMP-9; [8]) was 29.89, the “relative probability (RP)” value (MMP-9; [5]) was 29.89 and the “relative probability (RP) (acc.to MMP9)” value (MMP-9; [6]) was 29.89. The “relative probability (RP) (acc.to MMP2)” value (MMP-2; [9]) was 23.04, the “relative probability (RP) of matching tetramer” value (MMP-2) was 23.04 and the “relative probability (RP) (acc.to MMP2)” value (MMP-2; [7]) was 23.04.
In the case of PVSL, the “relative probability (RP) (acc.to MMP9)” value (MMP-9; [1]) was 42.36 and the “relative probability (RP) (acc.to MMP2)” value (MMP-2; [2]) was 32.5.
With PYEWHS the “relative probability (RP)” value (MMP-9; [3]) was 22.8534 and the “relative probability (RP)” value (MMP-2; [4]) was 1.984.
PYGIKG was tested, and the “relative probability (RP)” value (MMP-9; [3]) was 49.5245 and the “relative probability (RP)” value (MMP-2; [4]) was 28.2788.
PYGL was tested, and the “relative probability (RP) (acc.to MMP9)” value (MMP-9; [1]) was 49.41, the avg_RP (MMP-2) was 32.9966 and the “relative probability (RP) (acc.to MMP2)” value (MMP-2; [2]) was 33.
For PYSI, the “relative probability (RP) (acc.to MMP9)” value (MMP-9; [8]) was 45.53, the “relative probability (RP) (acc.to MMP2)” value (MMP-2; [9]) was 23.85 and the “relative probability (RP) of matching tetramer” value (MMP-2) was 23.85.
For QAQL, the “relative probability (RP) (acc.to MMP9)” value (MMP-9; [10]) was 0.06, the “normalized RP - MMP9” value (MMP-9; unique part of MMP2 selectome) was 0.001145 and the “relative probability (RP) of matching tetramer” value (MMP-2) was 6.16. The “relative probability (RP) (acc.to MMP2)” value (MMP-2; [11]) was 6.16 and the “normalized RP - MMP2” value (MMP-2; unique part of MMP2 selectome) was 0.1687.
In the case of QGAI, the “relative probability (RP) (acc.to MMP9)” value (MMP-9; [1]) was 0 and the “relative probability (RP) (acc.to MMP2)” value (MMP-2; [2]) was 1.94.
QGPAAI was tested, and the “relative probability (RP)” value (MMP-9; [3]) was 46.1642 and the “relative probability (RP)” value (MMP-2; [4]) was 32.0972.
With QPLEIR the “relative probability (RP)” value (MMP-9; [3]) was 43.9826 and the “relative probability (RP)” value (MMP-2; [4]) was 19.9123.
In the case of QPPLPL, the “relative probability (RP)” value (MMP-9; [3]) was 49.0268 and the “relative probability (RP)” value (MMP-2; [4]) was 35.0814.
For QQPQAL, the “relative probability (RP)” value (MMP-9; [3]) was 48.457 and the “relative probability (RP)” value (MMP-2; [4]) was 34.4508.
With QQPSRL the “relative probability (RP)” value (MMP-9; [3]) was 39.8157 and the “relative probability (RP)” value (MMP-2; [4]) was 31.7732.
QRGI was tested, and the “corresponding MMP9 relative probability (RP)” value (MMP-9) was 0.7406, the “Relative probability (RP) rank” value (MMP-9; [12]) was 19198 and the “relative probability (RP)” value (MMP-9; [12]) was 0.74. The “relative probability (RP) (acc.to MMP9)” value (MMP-9; [1]) was 0.74, the avg_RP (MMP-2) was 7.4836 and the “MMP2 relative probability (RP)” value (MMP-2) was 7.484. The “Relative probability (RP) rank” value (MMP-2; [13]) was 6090, the “relative probability (RP)” value (MMP-2; [13]) was 7.48 and the “relative probability (RP) (acc.to MMP2)” value (MMP-2; [2]) was 7.48.
In the case of QSPINL, the “relative probability (RP)” value (MMP-9; [3]) was 44.8884 and the “relative probability (RP)” value (MMP-2; [4]) was 31.6393.
For RGEL, the “corresponding MMP9 relative probability (RP)” value (MMP-9) was 0.3681, the “MMP2 relative probability (RP)” value (MMP-2) was 14.9989 and the “Relative probability (RP) rank” value (MMP-2; [13]) was 3096. For the same substance, the “relative probability (RP)” value (MMP-2; [13]) was 15.
In the case of RMMREL, the “relative probability (RP)” value (MMP-9; [3]) was 21.3182 and the “relative probability (RP)” value (MMP-2; [4]) was 19.1524.
With RPEDLR the “relative probability (RP)” value (MMP-9; [3]) was 13.0748 and the “relative probability (RP)” value (MMP-2; [4]) was 6.012.
In the case of RRPRPL, the “relative probability (RP)” value (MMP-9; [3]) was 46.7888 and the “relative probability (RP)” value (MMP-2; [4]) was 34.3303.
SAAQPL was tested, and the “relative probability (RP)” value (MMP-9; [3]) was 28.189 and the “relative probability (RP)” value (MMP-2; [4]) was 14.4283.
With SAPL the “relative probability (RP) (acc.to MMP9)” value (MMP-9; [10]) was 2.49, the “normalized RP - MMP9” value (MMP-9; unique part of MMP2 selectome) was 0.04754 and the “relative probability (RP) of matching tetramer” value (MMP-2) was 18.44. The “relative probability (RP) (acc.to MMP2)” value (MMP-2; [11]) was 18.44 and the “normalized RP - MMP2” value (MMP-2; unique part of MMP2 selectome) was 0.5049.
SDEL was tested, and the “relative probability (RP) (acc.to MMP9)” value (MMP-9; [1]) was 0 and the “relative probability (RP) (acc.to MMP2)” value (MMP-2; [2]) was 0.
SFGL was tested, and the “MMP9 relative probability (RP)” value (MMP-9; MMP9 tetramers from unique substrates, unrounded values) was 0.1902, the “relative probability (RP) (acc.to MMP9)” value (MMP-9; [1]) was 10.79 and the “corresponding MMP2 relative probability (RP)” value (MMP-2; MMP9 tetramers from unique substrates, RP of same tetramer for MMP2) was 10.7897. For the same substance, the “relative probability (RP) (acc.to MMP2)” value (MMP-2; [2]) was 0.19.
